Like-named read-outs stand apart in the source and are kept apart here.

The record followed here is article PMC7194293, “Living on the Edge: Physiological and Kinetic Trade-Offs Shape Thermal Tolerance in Intertidal Crabs From Tropical to Sub-Antarctic South America” (Frontiers in Physiology, 2020).

What all share (test): NADH oxidation at […] nm, muscle homogenate supernatant
Test [1] concerns T1, LDH (muscle lactate dehydrogenase).
T1 construct: native, not purified; supernatant of abdominal muscle homogenate, pooled crabs, Pernambuco, Brazil
Format: biochemical, Ucides cordatus. The note with it: 150 uM NADH, 80 mM imidazole-HCl pH 6.9, 26 °C (FRT); read-out: Km^Pyr / (mM) / FRT.

The subject of test [2] is T2, LDH (muscle lactate dehydrogenase).
T2 construct: native, not purified; supernatant of abdominal muscle homogenate, pooled crabs, Ushuaia, Argentina
Format: biochemical, Halicarcinus planatus. The note with it: 150 uM NADH, 80 mM imidazole-HCl pH 6.9, 9 °C (FRT); read-out: Km^Pyr / (mM) / FRT.

Test [3] has as its system T1, LDH (muscle lactate dehydrogenase). The class given is biochemical, Cardisoma guanhumi. The note with it: 150 uM NADH, 80 mM imidazole-HCl pH 6.9, 26 °C (FRT); read-out: Km^Pyr / (mM) / FRT.
In test [4] the test system is T3, LDH (muscle lactate dehydrogenase).
T3 construct: native, not purified; supernatant of abdominal muscle homogenate, pooled crabs, Rio Grande, Brazil
Format: biochemical, Armases rubripes. The note with it: 150 uM NADH, 80 mM imidazole-HCl pH 6.9, 15 °C (FRT); read-out: Km^Pyr / (mM) / FRT.

Test [5] concerns T1, LDH (muscle lactate dehydrogenase). Format: biochemical, Pachygrapsus transversus. To be noted: 150 uM NADH, 80 mM imidazole-HCl pH 6.9, 26 °C (FRT); read-out: Km^Pyr / (mM) / FRT.
For test [6], the system named is T3, LDH (muscle lactate dehydrogenase). Format: biochemical, Neohelice granulata. To be noted: 150 uM NADH, 80 mM imidazole-HCl pH 6.9, 15 °C (FRT); read-out: Km^Pyr / (mM) / FRT.
Test [7] relates to T1, LDH (muscle lactate dehydrogenase). Format: biochemical, Ocypode quadrata. To be noted: 150 uM NADH, 80 mM imidazole-HCl pH 6.9, 26 °C (FRT); read-out: Km^Pyr / (mM) / FRT.
Test [8] relates to T3, LDH (muscle lactate dehydrogenase). The class given is biochemical, Leptuca uruguayensis. To be noted: 150 uM NADH, 80 mM imidazole-HCl pH 6.9, 15 °C (FRT); read-out: Km^Pyr / (mM) / FRT.
Test [9] relates to T1, LDH (muscle lactate dehydrogenase). Format: biochemical, Goniopsis cruentata. To be noted: 150 uM NADH, 80 mM imidazole-HCl pH 6.9, 26 °C (FRT); read-out: Km^Pyr / (mM) / FRT.
Test [10] has the same test system. Format: biochemical, Uca maracoani. The note with it: 150 uM NADH, 80 mM imidazole-HCl pH 6.9, 26 °C (FRT); read-out: Km^Pyr / (mM) / FRT.
Test [11] relates to T2, LDH (muscle lactate dehydrogenase). Format: biochemical, Acanthocyclus albatrossis. The note with it: 150 uM NADH, 80 mM imidazole-HCl pH 6.9, 9 °C (FRT); read-out: Km^Pyr / (mM) / FRT.
The subject of test [12] is T1, LDH (muscle lactate dehydrogenase). The class given is biochemical, Aratus pisonii. The note with it: 150 uM NADH, 80 mM imidazole-HCl pH 6.9, 26 °C (FRT); read-out: Km^Pyr / (mM) / FRT.

`CC(=O)C(=O)O` [pyruvate]: the Km came out at 0.17 ± 0.01 mM in test [1]; 0.5 mM in test [2]; 0.17 ± 0.01 mM in test [3]; 0.15 ± 0.01 mM in test [4]; 0.2 ± 0.01 mM in [5]; 0.32 ± 0.03 mM in [6]. The Km in [7] worked out at 0.15 ± 0.02 mM; in [8] it was 0.16 mM; in test [9] it was 0.1 mM; in [10], 0.49 ± 0.05 mM; in [11], 0.3 mM; in [12], 0.11 mM.
